{
  "source": "patent US9635859B2",
  "about": "“Pesticidal compositions and processes related thereto” (Dow AgroSciences LLC, priority 2012, dated 2017)",
  "format_in_all_cases": "in vivo",
  "key": {"[1]": {"test_system": "Corn Earworm (Helicoverpa zea)", "assay": "Bioassays on CEW, 128-well diet tray assay", "details": "percent mortality, second instar larvae, 50 μg/cm^2 on artificial diet, five to seven days, 25° C.; Table 3", "experimental": "(§1) Certain molecules disclosed in this document were tested against BAW and CEW and CL using procedures described in the following examples. In the reporting of the results, the “BAW & CEW & CL Rating Table” was used (See Table Section).\nBioassays on CEW (Helicoverpa zea)\nBioassays on CEW were conducted using a 128-well diet tray assay. one to five second instar CEW larvae were placed in each well (3 mL) of the diet tray that had been previously filled with 1 mL of artificial diet to which 50 μg/cm^2 of the test compound (dissolved in 50 μL of 90:10 acetone-water mixture) had been applied (to each of eight wells) and then allowed to dry. Trays were covered with a clear self-adhesive cover, and held at 25° C., 14:10 light-dark for five to seven days. Percent mortality was recorded for the larvae in each well; activity in the eight wells was then averaged. The results are indicated in the table entitled “Table 3: Assay Results” (See Table Section)."}, "[2]": {"test_system": "Cabbage Looper (Trichoplusia ni)", "assay": "Bioassays on CL, 128-well diet tray assay", "details": "percent mortality, second instar larvae, 50 μg/cm^2 on artificial diet, five to seven days, 25° C.; Table 3A", "experimental": "as §1\nBioassays on CL (Trichoplusia ni)\nBioassays on CL were conducted using a 128-well diet tray assay. One to five second instar CL larvae were placed in each well (3 mL) of the diet tray that had been previously filled with 1 mL of artificial diet to which 50 μg/cm^2 of the test compound (dissolved in 50 μL of 90:10 acetone-water mixture) had been applied (to each of eight wells) and then allowed to dry. Trays were covered with a clear self-adhesive cover, and held at 25° C., 14:10 light-dark for five to seven days. Percent mortality was recorded for the larvae in each well; activity in the eight wells was then averaged. The results are indicated in the table entitled “Table 3A: Assay Results” (See Table Section)."}, "[3]": {"test_system": "Beet Armyworm (Spodoptera exigua)", "assay": "Bioassays on BAW, 128-well diet tray assay", "details": "percent mortality, second instar larvae, 50 μg/cm^2 on artificial diet, five to seven days, 25° C.; Table 3", "how_it_was_run": "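Second-instar larvae (one to five per well) were placed on artificial diet surface-treated with 50 μg/cm^2 compound in acetone-water and held at 25 °C, 14:10 light-dark, for five to seven days. Percent mortality was averaged over eight wells.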"}},
  "data": [
    {"smiles": "O=C(NCc1ccc(/C=C/C(c2cc(Cl)c(Cl)c(Cl)c2)C(F)(F)F)cc1Cl)Oc1ccccc1Cl", "note": "(centres unmarked) [CC40]", "values": [
      {"measurement": "CEW Rating", "setting": "[1]", "value": "A (50-100)"}
    ]},
    {"smiles": "CCNC(=O)N(C)NC(=O)c1ccc(/C=C/C(c2cc(Cl)c(Cl)c(Cl)c2)C(F)(F)F)cc1Br", "note": "(centres unmarked) [Compound F1, (E)-2-(2-Bromo-4-(4,4,4-trifluoro-3-(3,4,5-trichlorophenyl)but-1-en-1-yl)benzoyl)-N-ethyl-1-methylhydrazinecarboxamide]", "values": [
      {"measurement": "CL Rating", "setting": "[2]", "value": "A (50-100)"}
    ]},
    {"smiles": "O=C(NCC(F)(F)F)NNC(=O)c1ccc(/C=C/C(c2cc(Cl)c(Cl)c(Cl)c2)C(F)(F)F)cc1Br", "note": "(centres unmarked) [Compound F7, (E)-2-(2-Bromo-4-(4,4,4-trifluoro-3-(3,4,5-trichlorophenyl)but-1-en-1-yl)benzoyl)-N-(2,2,2-trifluoroethyl)hydrazinecarboxamide]", "values": [
      {"measurement": "CL Rating", "setting": "[2]", "value": "A (50-100)"}
    ]},
    {"smiles": "C/C(=C\\C(c1cc(Cl)cc(Cl)c1)C(F)(F)F)c1ccc(-n2cncn2)cc1", "note": "(centres unmarked) [DC68, (E)-1-(4-(4-(3,5-Dichlorophenyl)-5,5,5-trifluoropent-2-en-2-yl)phenyl)-1H-1,2,4-triazole]", "values": [
      {"measurement": "BAW Rating", "setting": "[3]", "value": "A (50-100)"}
    ]},
    {"smiles": "COC(/C=C/c1ccc(-n2cncn2)cc1)(c1cc(Cl)cc(Cl)c1)C(F)(F)F", "note": "(centres unmarked) [DC70, (E)-1-(4-(3-(3,5-Dichlorophenyl)-4,4,4-trifluoro-3-methoxybut-1-en-1-yl)phenyl)-1H-1,2,4-triazole]", "values": [
      {"measurement": "BAW Rating", "setting": "[3]", "value": "A (50-100)"}
    ]}
  ]
}
